In brackets after ≈: the same amount, converted by molar mass.

In data set [1] the test system is HCV replicon (I389luc-ubi-NS3-3′/ET) in Huh-luc/neo-ET cell. Kind of data set: HCV replication inhibition by firefly luciferase activity in Huh-luc/neo-ET cells (HCV replicon system). Conditions: for IC50 / IC90: Hepatitis C virus, Huh-luc/neo-ET, 48 h; for IC50: read-out: IC50: 50% of the HCV replication inhibition concentration, Huh-luc/neo-ET cells, luciferase activity, co-cultured 2 days; for IC90: read-out: IC90: 90% of the HCV replication inhibition concentration; for IC50: 50% of the HCV replication inhibition concentration: Huh-luc/neo-ET cells, luciferase activity, co-cultured 2 days; for EW (effect window, CC50/IC50): ratio of CC50 to IC50 in Huh-luc/neo-ET cells. From the text:
The Huh-luc/neo-ET cell has I389luc-ubi-NS3-3′/ET replicon and could be used to monitor the replicative capability of the HCV. The Huh-luc/neo-ET is able to express a firefly luciferase-ubiquitin-neomycin fusion protein translated by the internal ribosomal entry site (IRES) of the hepatitis C virus and is able to express the hepatitis C viral nonstructural protein (NS3-5B) including protease, helicase and polymerase translated by the IRES of the encephalomyocarditis virus (EMCV). When the replication complex composed of the IRES of the hepatitis C virus or the nonstructural protein of the hepatitis C virus is influenced by a candidate, the effect of the candidate for inhibiting the activity of the hepatitis C virus repilcon can be estimated by determining the intensity of the firefly luciferase activity. The hepatitis C virus inhibition effect of the limonoid compound can be determined by determining the firefly luciferase activity expressed by the Huh-luc/noe-ET cell in presence of the limonoid compound.
5.96 g of chuanlianzi ethanol extract was dissolved in 20 ml of a mixture of methanol and water and extracted with 15 ml of n-hexane, diethyl ether, dichloromethane and ethyl acetate for 2-3 times, respectively to obtain an n-hexane layer extraction solution, diethyl ether layer extraction solution, dichloromethane layer extraction solution and ethyl acetate layer extraction solution, respectively. Each layer extraction solution was concentrated and dried to obtain an n-hexane layer extract, diethyl ether layer extract, dichloromethane layer extract and ethyl acetate layer extract, respectively. The hepatitis C inhibition activity of each layer extract was determined by using a Huh-luc/neo-ET cell (HCV replication system) for testing thereof.
The Huh-luc/neo-ET cells were co-cultured with toosendanin with concentrations of 0.15 μg/ml, 0.075 μg/ml, 0.038 μg/ml, 0.019 μg/ml and 0.0085 μg/ml, respectively for 2 days and then were washed twice by 100 μl of 1×PBS (1 mM KH2PO4, 10 mM Na2HPO4, 137 mM NaCl, 2.7 mM KCl) and PBS was removed. 35 μl of 1× passive lysis buffer (Promega, E1941) was added to the cells and vortexed by a vortexer for 10 minutes to thoroughly mix the cells.
Cell suspension with an amount of 30 μl/well was added to a 96 well white plate(NUNC, 236108) for measuring luciferase activity, and 40 μl/well of luminescence analysis buffer and 20 μl/well of luminescence substrate (1 mM D-Luciferin) were sequentially added into the 96 well white plates. After the substrate was added, a microplate luminescence meter (Berthold, MPL4) was used to measure the luciferase activity (Rlu/s).
The luciferase activity of the control group was used as a standard to calculate the hepatitis C virus inhibition rates (%) of the experiment groups. The formula of inhibition rates (%) was: {[(luciferase activity of control group)−(luciferase activity of experiment group)]/(luciferase activity of control group)}×100%. After the sample was serial diluted and the HCV replication inhibition rates were determined at different concentrations, 50% of the HCV replication inhibition concentration (IC50) was calculated by grafit5 software (Erithacus Software).
For each experiment, except for the PEG IFN alpha-2a with concentrations of 0.5 ng/ml and 0.1 ng/ml were used as positive controls for the IC50 test. Additionally, cyclosporine A (CsA) with a concentration of 1 μg/ml was also used as a positive control for the IC50 test.
The experiment procedure was the same as Example 2 while the testing sample was replaced with Trichilin H. The Huh-luc/neo-ET cells were co-cultured with Trichilin H with concentrations of 0.75 μg/ml, 0.5 μg/ml, 0.25 μg/ml and 0.125 μg/ml, respectively.

For another data set, the system named is Huh-luc/neo-ET cells. The data set can be described thus: in vitro. The settings on record: MTT, culturing for two days; for CC15: 15% of the cell cytotoxic concentration: from trend line formula (y = 85). Format: cell-based. As for the experimental part: (§1) Huh-luc/neo-ET cells with concentration of 2.5×10^4 cells/100 μl/well were seeded into a 96 well culture plate (Corning Incorporation COSTAR, 3599) and placed into a cell incubator for culturing.
(§2) The next day, a toosendanin sample was diluted with a DMEM culture medium to the concentrations of 28.73 μg/ml, 9.57 μg/ml, 3.19 μg/ml, 1.06 μg/ml, 0.35 μg/ml, 0.11 μg/ml, 0.039 μg/ml and 0.013 μg/ml, respectively, or to become the concentrations of 114.92 μg/ml, 38.33 μg/ml, 12.77 μg/ml, 4.25 μg/ml, 1.42 μg/ml, 0.46 μg/ml, 0.16 μg/ml and 0.057 μg/ml, respectively. The initial medium in the 96 well culture plate was sucked out by a vacuum pump (DOAT-704AA) without removing the cells. Then, the toosendanin culture medium with concentrations mentioned above were added into the 96 well culture plate containing cells with amount of 100 μl/well as experiment groups while untreated culture medium were added to the cells as a control group.
(§3) Then, PBS was removed and 50 μl of medium containing MTT (Sigma, M2128) with a concentration of 0.5 mg/ml was added into each well of the 96 well culture plate. After the 96 well culture plate was placed in a CO2 culture incubator for 1 hour, DMSO (Riedel-de Haën, 60153) with amount of 150 μl/well was added into the 96 well culture plate and vortexed by a votexer (KS shaker Type 670) to thoroughly mix the resulting purple precipitate. After the purple precipitate was thoroughly mixed, the 96 well culture plate was placed in a continuous wave length microwell plate analysis system (Molecular Devices, SPECTRAMAX 190) to measure the absorbance of cells at 560 nm.
(§4) The average absorbance of the control groups was used as 100% of the cell survival rates (%) to calculate the cell survival rates (%) of the experiment groups with different concentrations of toosendanin samples. The formula of the cell survival rate was: (absorbance of experiment group/absorbance of the control group)×100%. The cell survival rates of all experiment groups were drawn to form an x-y graph and thus a trend line formula with R^2 value greater than 0.9 was obtained.
(§5) In the trend line formula, when y was 50, the resulting X meant 50% of the cell cytotoxic concentration (CC50) or when y was 85, the resulting X meant 15% of the cell cytotoxic concentration (CC15). Due to the property of the sample, CC15 was calculated from the trend line formula generated by the experiment groups containing samples with concentrations of 3.19 μg/ml, 1.06 μg/ml, 0.35 μg/ml, 0.11 μg/ml and 0.039 μg/ml.
(§6) When the cell survival rates (%) was greater than 85%, it meant that the sample at or less than the concentration (the concentration less than CC15) was non-cytotoxic. […]

Another data set can be described thus: in vitro. It is filed as cell-based. Conditions: human, Huh-luc/neo-ET cells, MTT, culturing for two days; read-out: CC50: 50% of the cell cytotoxic concentration. As for the experimental part:
as §1, §2, §3, §4, §5, §6

Regarding `CC(=O)O[C@@H]1C[C@H](O)[C@@]23CO[C@@H](O)[C@]1(C)[C@@H]2C[C@@H](O)[C@]1(C)[C@@H]3C(=O)[C@H](OC(C)=O)[C@@]2(C)[C@H](c3ccoc3)C[C@H]3O[C@]321` [Toosendanin, toosendanin], in data set [1], the IC50 is below 0.05 µg/mL; the IC90 came to 0.35 µg/mL (≈ 0.609 µM); the “IC50: 50% of the HCV replication inhibition concentration” value came out at 0.045 ± 0.004 µg/mL; the “EW (effect window, CC50/IC50)” value was above 2531.6. Moreover, the “EW (effect window, CC50/IC50)” value in data set [1] (listed as toosendanin) was “greater than 2500”. Further, in the data set with Huh-luc/neo-ET cells, the “CC50: 50% of the cell cytotoxic concentration” value was above 114 µg/mL and the “CC15: 15% of the cell cytotoxic concentration” value came out at 0.34 µg/mL.
Turning to `CC(=O)OC1C(OC(C)=O)C2(C)C(OC(=O)C(C)C)OCC3(C1O)C2CC(O)C1(C)C3C(=O)C(OC(C)=O)C2(C)C(c3ccoc3)CC3OC321` (stereo not drawn) [Trichilin H], in data set [1], the IC50 was below 0.5 µg/mL, the IC90 was 0.9 µg/mL (≈ 1.28 µM) and the “IC50: 50% of the HCV replication inhibition concentration” value stood at 0.48 ± 0.10 µg/mL. In the data set with Huh-luc/neo-ET cells, the “CC15: 15% of the cell cytotoxic concentration” value was found to be 0.7 µg/mL. Besides, in “in vitro”, the CC50 is above 50 µg/mL.

(Values after US8802662B2, “Anti-hepatitis C composition and method for preparing drug for inhibiting hepatitis C viruses or treating hepatitis C” (Industrial Technology Research Institute, priority 2009, dated 2014).)
